{
  "source": "patent US4001272A",
  "about": "“Herbicidal 2-fluoro-4-halo-phenyl-4,5,6,7-tetrahydro-2H-isoindole-1,3-diones” (E. I. Du Pont de Nemours and Company, priority 1974, dated 1977)",
  "format_in_all_cases": "in vivo",
  "key": {"[1]": {"tested_on": "pigweed (Amaranthus spp.)", "experiment": "Test A: field test, percent weed control of pigweed", "conditions": "seven weeks after treatment", "excerpt": "(§1) In test A, soybeans, peanuts, lima beans, green beans and squash were planted in a field infested with the following weed seeds: crabgrass (Digitaria sanquinalis), foxtails (Setaria spp.), barnyardgrass (Echinochloa crusgalli), pigweed (Amaranthus spp.), ragweed (Ambrosia artemisiifolia), velvetleaf (Abutilon theophrasti), purslane (Portulaca oleracea) and flower-of-an-hour (Hibiscus trionum). A 50% wettable powder formulation of 2-(4-chloro-2-fluorophenyl)-4,5,6,7-tetrahydro-2H-isoindole-1,3-dione was applied in the form of an aqueous suspension at rates of 0.125, 0.25, 0.5 and 1.0 kg/ha, each treatment replicated twice. The plots were rated for percent weed control and crop response seven weeks after treatment. Crop response was expressed on a scale of 0 = no injury to 10 = complete kill."}, "green beans": {"tested_on": "green beans", "experiment": "Test A: field test, crop response of green beans", "conditions": "seven weeks, 0 = no injury to 10 = complete kill", "excerpt": "as §1"}, "squash": {"tested_on": "squash", "experiment": "Test A: field test, crop response of squash", "conditions": "seven weeks, 0 = no injury to 10 = complete kill", "excerpt": "as §1"}, "[2]": {"tested_on": "crabgrass (Digitaria sanquinalis)", "experiment": "Test A: field test, percent weed control of crabgrass", "conditions": "seven weeks after treatment", "excerpt": "as §1"}, "[3]": {"tested_on": "purslane (Portulaca oleracea)", "experiment": "Test A: field test, percent weed control of purslane", "conditions": "seven weeks after treatment", "excerpt": "as §1"}, "lima beans": {"tested_on": "lima beans", "experiment": "Test A: field test, crop response of lima beans", "conditions": "seven weeks, 0 = no injury to 10 = complete kill", "excerpt": "as §1"}, "peanuts": {"tested_on": "peanuts", "experiment": "Test A: field test, crop response of peanuts", "conditions": "seven weeks, 0 = no injury to 10 = complete kill", "excerpt": "as §1"}, "[4]": {"tested_on": "ragweed (Ambrosia artemisiifolia)", "experiment": "Test A: field test, percent weed control of ragweed", "conditions": "seven weeks after treatment", "excerpt": "as §1"}, "foxtails (Setaria spp.)": {"tested_on": "foxtails (Setaria spp.)", "experiment": "Test A: field test, percent weed control of foxtails", "conditions": "seven weeks after treatment", "excerpt": "as §1"}},
  "data": [
    {"smiles": "O=C1C2=C(CCCC2)C(=O)N1c1ccc(Cl)cc1F", "note": "[Treatment I, 2-(4-chloro-2-fluorophenyl)-4,5,6,7-tetrahydro-2H-isoindole-1,3-dione]", "values": [
      {"measurement": "% Control, Pigweed", "setting": "[1]; 0.125 kg/ha", "value": 90, "unit": "%"},
      {"measurement": "% Control, Pigweed", "setting": "[1]; 0.25 kg/ha", "value": 98, "unit": "%"},
      {"measurement": "% Control, Pigweed", "setting": "[1]; 0.50 kg/ha", "value": 95, "unit": "%"},
      {"measurement": "% Control, Pigweed", "setting": "[1]; 1.00 kg/ha", "value": 100, "unit": "%"},
      {"measurement": "Crop Response, Green beans", "setting": "green beans; 0.125 kg/ha", "value": 2},
      {"measurement": "Crop Response, Green beans", "setting": "green beans; 0.25 kg/ha", "value": 2.5},
      {"measurement": "Crop Response, Green beans", "setting": "green beans; 0.50 kg/ha", "value": 8},
      {"measurement": "Crop Response, Green beans", "setting": "green beans; 1.00 kg/ha", "value": 8.5},
      {"measurement": "Crop Response, Squash", "setting": "squash; 0.125 kg/ha", "value": 2},
      {"measurement": "Crop Response, Squash", "setting": "squash; 0.25 kg/ha", "value": 2},
      {"measurement": "Crop Response, Squash", "setting": "squash; 0.50 kg/ha", "value": 6},
      {"measurement": "Crop Response, Squash", "setting": "squash; 1.00 kg/ha", "value": 9.5},
      {"measurement": "% Control, Crabgrass", "setting": "[2]; 0.125 kg/ha", "value": 60, "unit": "%"},
      {"measurement": "% Control, Crabgrass", "setting": "[2]; 0.25 kg/ha", "value": 94, "unit": "%"},
      {"measurement": "% Control, Crabgrass", "setting": "[2]; 0.50 kg/ha", "value": 99, "unit": "%"},
      {"measurement": "% Control, Crabgrass", "setting": "[2]; 1.00 kg/ha", "value": 99, "unit": "%"},
      {"measurement": "% Control, Purslane", "setting": "[3]; 0.125 kg/ha", "value": 82, "unit": "%"},
      {"measurement": "% Control, Purslane", "setting": "[3]; 0.25 kg/ha", "value": 97, "unit": "%"},
      {"measurement": "% Control, Purslane", "setting": "[3]; 0.50 kg/ha", "value": 100, "unit": "%"},
      {"measurement": "% Control, Purslane", "setting": "[3]; 1.00 kg/ha", "value": 100, "unit": "%"},
      {"measurement": "Crop Response, Lima beans", "setting": "lima beans; 0.125 kg/ha", "value": 0},
      {"measurement": "Crop Response, Lima beans", "setting": "lima beans; 0.25 kg/ha", "value": 1},
      {"measurement": "Crop Response, Lima beans", "setting": "lima beans; 0.50 kg/ha", "value": 4},
      {"measurement": "Crop Response, Lima beans", "setting": "lima beans; 1.00 kg/ha", "value": 8.5},
      {"measurement": "Crop Response, Peanuts", "setting": "peanuts; 0.125 kg/ha", "value": 0},
      {"measurement": "Crop Response, Peanuts", "setting": "peanuts; 0.25 kg/ha", "value": 0},
      {"measurement": "Crop Response, Peanuts", "setting": "peanuts; 0.50 kg/ha", "value": 2},
      {"measurement": "Crop Response, Peanuts", "setting": "peanuts; 1.00 kg/ha", "value": 3.5},
      {"measurement": "% Control, Ragweed", "setting": "[4]; 0.125 kg/ha", "value": 90, "unit": "%"},
      {"measurement": "% Control, Ragweed", "setting": "[4]; 0.25 kg/ha", "value": 99, "unit": "%"},
      {"measurement": "% Control, Ragweed", "setting": "[4]; 0.50 kg/ha", "value": 99, "unit": "%"},
      {"measurement": "% Control, Ragweed", "setting": "[4]; 1.00 kg/ha", "value": 100, "unit": "%"},
      {"measurement": "% Control, Foxtail", "setting": "foxtails (Setaria spp.); 0.125 kg/ha", "value": 40, "unit": "%"},
      {"measurement": "% Control, Foxtail", "setting": "foxtails (Setaria spp.); 0.25 kg/ha", "value": 82, "unit": "%"},
      {"measurement": "% Control, Foxtail", "setting": "foxtails (Setaria spp.); 0.50 kg/ha", "value": 95, "unit": "%"},
      {"measurement": "% Control, Foxtail", "setting": "foxtails (Setaria spp.); 1.00 kg/ha", "value": 99, "unit": "%"}
    ]}
  ]
}
